Test results: patent US12421228B2 (Mirati Therapeutics, Inc., priority 2019, dated 2025)

Key:
[1] = system: Karpas 422 cells (EZH2 Y641N); assay: Karpas 422 cell viability (Cell Titre Glo); format: cell-based; details: Homo sapiens, CTG viability, Day 4, Day 7 or Day 11 (time point not given), read-out: IC50 (nM), Inhibiting Proliferation of Cells Expressing an Activating Mutant Form of EZH2
Method in brief: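 Karpas 422 cells (EZH2 Y641N) in RPMI with 20% FBS, 1000 cells/well, exposed to compound from 10 μM in 3-fold dilutions down to 1.5 nM at 37° C. Viability by CellTiter-Glo at Day 4, 7 or 11; Day 11 plates re-fed with fresh medium and compound on Day 7. IC50 per time point.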

[2] = system: PRC2-mediated histone H3 methylation in Pfeiffer cells (EZH2 A677G); assay: Tri-Methyl Histone H3 (Lys 27) sandwich ELISA in Pfeiffer cells; format: cell-based; details: Homo sapiens, 96 hours incubation, H3K27me3 ELISA, read-out: IC50 (nM), Inhibition of EZH2-mediated Histone H3 Trimethylation
Method in brief: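 Pfeiffer DLBCL cells (EZH2 A677G) exposed to 3-fold serial compound dilutions for 96 h at 37 °C. Acid-extracted (0.4 M HCl), neutralized histones then assayed by sandwich ELISA for H3K27me3 with HRP/TMB readout at 450 nm; potency reported in bins (A ≤100 nM, B >100–≤500 nM, C >500 nM).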

[3] = target: purified human, His-tagged PRC2 complex (Homo sapiens (Human), UniProt O75530); assay: Hot Spot HMT assay, inhibition of PRC2 enzymatic activity; format: biochemical; details: 10 nM PRC2 complex, 0.05 mg/ml core histone H3, 1 μM 3H-SAM, 1 hr at 30° C.; read-out: IC50, Inhibition of PRC2-mediated Enzymatic Activity
Sequence of purified human, His-tagged PRC2 complex (Q15910 whole entry): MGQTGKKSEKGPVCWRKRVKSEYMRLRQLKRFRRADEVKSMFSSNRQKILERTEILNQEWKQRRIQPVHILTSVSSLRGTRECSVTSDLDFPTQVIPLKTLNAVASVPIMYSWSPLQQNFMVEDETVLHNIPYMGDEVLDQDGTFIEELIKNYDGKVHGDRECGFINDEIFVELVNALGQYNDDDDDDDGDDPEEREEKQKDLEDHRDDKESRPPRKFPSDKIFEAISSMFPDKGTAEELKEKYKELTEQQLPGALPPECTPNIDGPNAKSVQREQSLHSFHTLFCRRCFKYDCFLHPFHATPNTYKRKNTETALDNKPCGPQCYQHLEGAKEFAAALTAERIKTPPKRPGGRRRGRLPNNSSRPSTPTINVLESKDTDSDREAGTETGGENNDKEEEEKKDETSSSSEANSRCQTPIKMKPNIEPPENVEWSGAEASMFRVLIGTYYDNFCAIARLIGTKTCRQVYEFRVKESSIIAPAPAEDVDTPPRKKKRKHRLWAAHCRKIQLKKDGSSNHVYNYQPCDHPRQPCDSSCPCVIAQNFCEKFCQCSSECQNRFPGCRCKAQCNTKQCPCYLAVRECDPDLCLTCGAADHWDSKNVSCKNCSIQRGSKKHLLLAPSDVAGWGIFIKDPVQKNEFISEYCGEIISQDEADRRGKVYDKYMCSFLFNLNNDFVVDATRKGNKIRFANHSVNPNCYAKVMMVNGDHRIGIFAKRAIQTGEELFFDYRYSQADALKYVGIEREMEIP
Sequence of purified human, His-tagged PRC2 complex (O75530 whole entry): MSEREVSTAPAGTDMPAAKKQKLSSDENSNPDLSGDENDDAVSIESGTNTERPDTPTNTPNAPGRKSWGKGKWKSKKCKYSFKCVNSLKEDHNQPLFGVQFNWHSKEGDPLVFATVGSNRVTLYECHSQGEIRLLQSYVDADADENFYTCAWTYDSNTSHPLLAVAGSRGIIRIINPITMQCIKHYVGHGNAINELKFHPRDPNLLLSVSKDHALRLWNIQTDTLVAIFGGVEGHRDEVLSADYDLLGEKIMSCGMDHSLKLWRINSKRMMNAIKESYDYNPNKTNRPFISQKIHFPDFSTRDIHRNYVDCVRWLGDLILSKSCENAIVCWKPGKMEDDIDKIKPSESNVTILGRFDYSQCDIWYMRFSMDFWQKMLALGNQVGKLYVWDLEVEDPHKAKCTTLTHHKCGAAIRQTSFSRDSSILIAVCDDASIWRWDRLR
Sequence of purified human, His-tagged PRC2 complex (Q15022 whole entry partner): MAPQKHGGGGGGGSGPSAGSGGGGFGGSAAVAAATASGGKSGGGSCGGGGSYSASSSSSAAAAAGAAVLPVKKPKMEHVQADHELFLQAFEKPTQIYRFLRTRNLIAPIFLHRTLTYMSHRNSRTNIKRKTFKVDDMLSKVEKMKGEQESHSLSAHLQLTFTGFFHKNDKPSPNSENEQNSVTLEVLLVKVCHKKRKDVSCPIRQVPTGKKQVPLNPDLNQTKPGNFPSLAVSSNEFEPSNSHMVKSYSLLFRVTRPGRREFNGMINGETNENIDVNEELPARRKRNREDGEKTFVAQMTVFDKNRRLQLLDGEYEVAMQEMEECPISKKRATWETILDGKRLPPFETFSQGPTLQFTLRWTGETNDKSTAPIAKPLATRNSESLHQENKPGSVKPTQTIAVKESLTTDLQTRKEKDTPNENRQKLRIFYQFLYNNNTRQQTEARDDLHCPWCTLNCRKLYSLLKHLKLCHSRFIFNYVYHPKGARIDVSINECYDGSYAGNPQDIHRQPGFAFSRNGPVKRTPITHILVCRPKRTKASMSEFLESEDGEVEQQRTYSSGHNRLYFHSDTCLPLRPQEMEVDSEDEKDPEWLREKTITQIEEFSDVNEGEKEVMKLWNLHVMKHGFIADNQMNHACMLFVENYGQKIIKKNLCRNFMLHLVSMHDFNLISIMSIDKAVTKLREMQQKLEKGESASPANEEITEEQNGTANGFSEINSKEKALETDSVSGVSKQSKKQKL
Sequence of purified human, His-tagged PRC2 complex (Q6ZN18 whole entry partner): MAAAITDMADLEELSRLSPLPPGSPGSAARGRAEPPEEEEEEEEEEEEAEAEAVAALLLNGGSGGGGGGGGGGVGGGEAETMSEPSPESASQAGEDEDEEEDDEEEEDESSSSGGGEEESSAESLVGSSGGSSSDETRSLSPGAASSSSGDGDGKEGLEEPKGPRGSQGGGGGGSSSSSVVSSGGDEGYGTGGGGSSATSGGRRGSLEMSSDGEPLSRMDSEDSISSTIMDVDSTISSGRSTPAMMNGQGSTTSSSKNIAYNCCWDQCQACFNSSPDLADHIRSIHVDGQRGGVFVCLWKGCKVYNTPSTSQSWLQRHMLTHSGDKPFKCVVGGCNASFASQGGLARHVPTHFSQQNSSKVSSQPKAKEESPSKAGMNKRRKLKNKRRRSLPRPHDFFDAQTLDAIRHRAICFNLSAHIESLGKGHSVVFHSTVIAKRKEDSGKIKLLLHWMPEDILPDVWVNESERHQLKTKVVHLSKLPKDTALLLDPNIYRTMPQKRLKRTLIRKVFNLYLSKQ
Sequence of purified human, His-tagged PRC2 complex (Q09028 whole entry partner): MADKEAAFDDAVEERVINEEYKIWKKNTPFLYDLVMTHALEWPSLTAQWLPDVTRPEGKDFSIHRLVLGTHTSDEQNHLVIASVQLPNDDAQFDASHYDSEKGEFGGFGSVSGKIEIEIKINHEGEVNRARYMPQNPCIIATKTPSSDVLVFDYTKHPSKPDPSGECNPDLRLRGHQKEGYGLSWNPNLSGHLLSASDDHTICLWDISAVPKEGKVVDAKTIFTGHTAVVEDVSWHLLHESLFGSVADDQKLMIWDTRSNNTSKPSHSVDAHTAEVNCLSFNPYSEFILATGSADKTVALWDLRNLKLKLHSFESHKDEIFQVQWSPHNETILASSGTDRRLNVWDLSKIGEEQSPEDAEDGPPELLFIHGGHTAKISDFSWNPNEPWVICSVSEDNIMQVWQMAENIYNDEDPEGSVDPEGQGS
Method in brief: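 Ten-point, three-fold dilution series from 1.0 μM. 10 nM PRC2 with 0.05 mg/ml core histone H3 in pH 8 Tris buffer was pre-incubated 20 min at 30 °C, then reacted with 1 μM [3H]-SAM for 1 hr at 30 °C. Tritiated H3 was captured by filter binding and scintillation-counted; IC50 was taken from the dose-response curve.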

SMILES	IC50 [1] [nM]	IC50 [2] [nM]	IC50 [3] [µM]
Cc1cc(CN(C)C)ccc1-c1cnc(NCc2c(F)ccc3c2CCO3)c2c[nH]c(=O)cc12 [Example 41]	250 to 500	100 to 500	0.1 to 0.25
Cc1cc(-c2cnc(NCc3c(F)ccc4c3CCO4)c3ncncc23)n(C)n1 [Example 59, 5-(1,3-dimethyl-1H-pyrazol-5-yl)-N-((5-fluoro-2,3-dihydrobenzofuran-4-yl)methyl)pyrido[3,4-d]pyrimidin-8-amine]	> 500	> 500	> 0.25
CSc1ncc2c(NCc3c(F)ccc4c3CCO4)ncc(-c3cc(C)nn3C)c2n1 [Example 27, 8-(1,3-dimethyl-1H-pyrazol-5-yl)-N-((5-fluoro-2,3-dihydrobenzofuran-4-yl)methyl)-2-(methylthio)pyrido[4,3-d]pyrimidin-5-amine]	≤ 250	100 to 500	< 0.1
CNCc1ccc(-c2cnc(NCc3c(F)ccc4c3CCO4)c3cnncc23)c(C)c1 [Example 19, N-((5-fluoro-2,3-dihydrobenzofuran-4-yl)methyl)-8-(2-methyl-4-((methylamino)methyl)phenyl)pyrido[3,4-d]pyridazin-5-amine]	≤ 250	≤ 100	< 0.1
